Here are results for 4 compounds from ChEMBL document CHEMBL1142865, “22-Alkyl-20-epi-1alpha,25-dihydroxyvitamin D3 compounds of superagonistic activity: syntheses, biological activities and interaction with the receptor” (J Med Chem, 2007).

Each structure is given as a SMILES string.

Test [1] relates to Rattus norvegicus. Kind of test: Effect on intestinal calcium transport in low-calcium diet fed rat assessed as serosal:mucosal ratio of calcium at 650 pmol/day, ip after 7 days. It counts as functional.
For test [2], the system named is Rattus norvegicus. As to the kind of experiment: Effect on intestinal calcium transport in low-calcium diet fed rat assessed as serosal:mucosal ratio of calcium at 100 pmol/day, ip after 7 days. The format is functional.
Test [3] concerns Rattus norvegicus. Kind of test: Effect on bone calcium mobilization in low-calcium diet fed rat at 100 pmol/day, ip after 7 days. The format is functional.
The test system of test [4] is Rattus norvegicus. As to the kind of experiment: Effect on bone calcium mobilization in low-calcium diet fed rat assessed by measuring at 650 pmol/day, ip after 7 days. It counts as functional.
In test [5] the test system is Rattus norvegicus. Kind of test: Effect on intestinal calcium transport in low-calcium diet fed rat assessed as serosal:mucosal ratio of calcium at 325 pmol/day, ip after 7 days. It counts as functional.
Test [6] has as its target T1, Vitamin D3 receptor (Homo sapiens, UniProt P11473).
T1 sequence (P11473 whole entry): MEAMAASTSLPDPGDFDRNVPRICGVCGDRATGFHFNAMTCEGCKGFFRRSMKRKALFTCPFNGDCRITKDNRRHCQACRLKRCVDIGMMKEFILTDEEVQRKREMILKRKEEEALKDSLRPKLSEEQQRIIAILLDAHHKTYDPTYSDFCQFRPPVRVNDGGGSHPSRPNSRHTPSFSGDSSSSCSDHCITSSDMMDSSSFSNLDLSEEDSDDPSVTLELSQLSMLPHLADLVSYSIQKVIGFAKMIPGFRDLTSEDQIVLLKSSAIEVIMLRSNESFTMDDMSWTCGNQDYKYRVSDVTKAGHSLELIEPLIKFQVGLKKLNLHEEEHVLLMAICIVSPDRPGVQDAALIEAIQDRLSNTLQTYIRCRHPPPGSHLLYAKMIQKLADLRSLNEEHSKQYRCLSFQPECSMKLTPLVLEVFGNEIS
Kind of test: Induction of transactivation of human VDR responsive gene in COS7 cells by rat osteopontin luciferase reporter gene assay. The format is cell-based, COS-7. In general terms: In a reporter assay the amount or activity of a reporter protein is the signal.

Another test concerns HL-60. As to the kind of experiment: Induction of human HL60 cell differentiation to monocytes by NBT reduction assay. The format is functional, cell-based.
Test [7] addresses T2, Vitamin D3 receptor (Bos taurus, UniProt Q28037).
T2 sequence (Q28037 whole entry): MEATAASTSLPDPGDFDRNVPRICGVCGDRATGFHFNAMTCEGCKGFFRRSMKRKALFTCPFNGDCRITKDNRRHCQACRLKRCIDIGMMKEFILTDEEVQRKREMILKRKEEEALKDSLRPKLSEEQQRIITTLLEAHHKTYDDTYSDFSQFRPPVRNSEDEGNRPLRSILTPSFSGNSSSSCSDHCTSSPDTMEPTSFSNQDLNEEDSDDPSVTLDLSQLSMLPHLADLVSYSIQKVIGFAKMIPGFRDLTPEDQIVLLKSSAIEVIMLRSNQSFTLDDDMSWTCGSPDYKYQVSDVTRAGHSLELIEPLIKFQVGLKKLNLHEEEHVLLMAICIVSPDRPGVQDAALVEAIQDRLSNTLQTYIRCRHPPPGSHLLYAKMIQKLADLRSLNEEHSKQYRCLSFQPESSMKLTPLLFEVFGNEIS
Kind of test: Displacement of [3H]1,25-(OH)2D3 from vitamin D receptor in bovine thymus. In general terms: In a radioligand displacement assay an active substance lowers the binding of a labelled ligand.

Test [8] relates to Rattus norvegicus. Kind of test: Effect on bone calcium mobilization in low-calcium diet fed rat at 325 pmol/day, ip after 7 days. The format is functional.

Consider `C=C1/C(=C\C=C2/CCC[C@@]3(C)C2CC[C@@H]3[C@@H](C)[C@H](C)CCC(C)(C)O)C[C@@H](O)C[C@@H]1O` (stereo partly drawn), for which the Ratio in the test with Rattus norvegicus [1] is recorded as 12.2; in the test on Rattus norvegicus [2], 7; with Rattus norvegicus [5], 8.2. Further, the Activity came to 5 with Rattus norvegicus [3], 8.4 in the test with Rattus norvegicus [4] and 8.1 with Rattus norvegicus [8]. In addition, the values for the EC50 on Vitamin D3 receptor [6], with HL-60 and on Vitamin D3 receptor [7] were 0.003 nM, 0.018 nM and 0.031 nM, respectively.
As to `C=C1/C(=C\C=C2/CCC[C@@]3(C)C2CC[C@@H]3[C@@H](C)[C@H](CC)CCC(C)(C)O)C[C@@H](O)C[C@@H]1O` (stereo partly drawn), the results for the Ratio with Rattus norvegicus [1], with Rattus norvegicus [2] and in the test with Rattus norvegicus [5] were 8.5, 5.7 and 6.3, respectively. The values for the Activity in the test with Rattus norvegicus [3], in the test with Rattus norvegicus [4] and in the test with Rattus norvegicus [8] were 3.9, 6.2 and 5, respectively. Also, the values for the EC50 at Vitamin D3 receptor [6], in the test on HL-60 and on Vitamin D3 receptor [7] were 0.002 nM, 0.057 nM and 0.018 nM, respectively.
Regarding `C=C1/C(=C\C=C2/CCC[C@@]3(C)C2CC[C@@H]3[C@@H](C)[C@H](CCCC)CCC(C)(C)O)C[C@@H](O)C[C@@H]1O` (stereo partly drawn), the EC50 amounted to 0.2 nM at Vitamin D3 receptor [6], 1.05 nM in the test on HL-60 and 0.89 nM on Vitamin D3 receptor [7].
For `C=C1/C(=C\C=C2/CCC[C@]3(C)[C@@H]([C@H](C)CCCC(C)(C)O)CC[C@@H]23)C[C@@H](O)C[C@@H]1O` [CALCITRIOL], the Activity with Rattus norvegicus [3] came out at 4.6; in the test with Rattus norvegicus [8] it was 5.5.

The term EC50 denotes the concentration at which the effect is half-maximal. Low readings indicate greater potency, high ones weaker potency.
